Data reported in patent US10059717B2, “Urea compounds containing 3,4-dihydropyrimido[4,5-D]pyrimidin-2(1H)-one skeleton as protein kinase inhibitors” (KOREA INSTITUTE OF SCIENCE AND TECHNOLOGY, priority 2016, dated 2018).

Assays:
Experiment in all cases: Kinase panel biochemical assay
Conditions in all cases: 1 μM single concentration, read-out: % residual enzyme activity
ABL2/ARG = ABL2/ARG (Homo sapiens, UniProt P42684)
Description: (§1) In order to measure the protein kinase inhibitory activity (% inhibition) of the compounds of the present invention, biochemical assays were performed on the full kinase panel listed in the following Table 1.
(§2) As an test compound, 1-(3-(7-((6-(4-ethylpiperazine-1-carbonyl)pyridin-3-yl)amino)-1-methyl-2-oxo-1,4-dihydropyrimido[4,5-d]pyrimidin-3(2H)-yl)-4-methylphenyl)-3-(2-methoxyphenyl)urea (Compound No. 14) was used. The kinase inhibitory efficacy was measured upon treatment with a 1 μM single concentration of the test compound to calculate % residual enzyme activity value.
(§3) ABL1, FGFR2, TAOK2/TAO1, EPHA5, EPHB2, EPHB3, RET, LYN B, EPHA2, FRK/PTK5, EPHA8, LCK, EPHB4, FYN, KHS/MAP4K5, DDR1, EPHA3, P38a/MAPK14, EPHA4, FMS, EPHB1, HCK, FGFR1, ABL2/ARG, EPHA6, c-Src, ACK1, FLT4NEGFR3, ERBB4/HER4, DDR2, KDRNEGFR2, LYN, ZAK/MLTK, YES/YES1, BLK, FGR, MLCK2/MYLK2, TAOK1, BMX/ETK, BTK, EPHA1, JAK1, P38b/MAPK11, TIE2/TEK, FLT1NEGFR1, TXK, SRMS, RAF1, SIK1, MLK3/MAP3K11, PEAK1, TRKA, EPHA7, GLK/MAP4K3, MLK2/MAP3K10, TEC, CSK, TRKC, FES/FPS, SIK2, FGFR3, BRK, YSK4/MAP3K19, ARAF, PDGFRb, TNK1, GCK/MAP4K2, PDGFRa, TNIK, TAK1, ERBB2/HER2, LIMK1, HIPK4, FER, EGFR, JAK2, HPK1/MAP4K1, TRKB, RIPK3, LOK/STK10, LIMK2, MLK1/MAP3K9, BRAF, MEKK3, MEK5, STK32B/YANK2, FGFR4, MEKK2, SLK/STK2, FLT3, PKAcg, TAOK3/JIK, TYRO3/SKY, SIK3, IR, LRRK2, PYK2, NEK11, p70S6K/RPS6KB1, LATS2.

BRK = BRK (Homo sapiens, UniProt Q13882)
Description: as §1, §2, §3

DDR1 = DDR1 (Homo sapiens, UniProt Q08345)
Description: as §1, §2, §3

EPHA2 = EPHA2 (Homo sapiens, UniProt P29317)
Description: as §1, §2, §3

EPHA4 = EPHA4 (Homo sapiens, UniProt P54764)
Description: as §1, §2, §3

EPHB3 = EPHB3 (Homo sapiens, UniProt P54753)
Description: as §1, §2, §3

FES/FPS = FES/FPS (Homo sapiens, UniProt P07332)
Description: as §1, §2, §3

FGFR1 = FGFR1 (Homo sapiens, UniProt P11362)
Sequence of FGFR1 (P11362 22-822): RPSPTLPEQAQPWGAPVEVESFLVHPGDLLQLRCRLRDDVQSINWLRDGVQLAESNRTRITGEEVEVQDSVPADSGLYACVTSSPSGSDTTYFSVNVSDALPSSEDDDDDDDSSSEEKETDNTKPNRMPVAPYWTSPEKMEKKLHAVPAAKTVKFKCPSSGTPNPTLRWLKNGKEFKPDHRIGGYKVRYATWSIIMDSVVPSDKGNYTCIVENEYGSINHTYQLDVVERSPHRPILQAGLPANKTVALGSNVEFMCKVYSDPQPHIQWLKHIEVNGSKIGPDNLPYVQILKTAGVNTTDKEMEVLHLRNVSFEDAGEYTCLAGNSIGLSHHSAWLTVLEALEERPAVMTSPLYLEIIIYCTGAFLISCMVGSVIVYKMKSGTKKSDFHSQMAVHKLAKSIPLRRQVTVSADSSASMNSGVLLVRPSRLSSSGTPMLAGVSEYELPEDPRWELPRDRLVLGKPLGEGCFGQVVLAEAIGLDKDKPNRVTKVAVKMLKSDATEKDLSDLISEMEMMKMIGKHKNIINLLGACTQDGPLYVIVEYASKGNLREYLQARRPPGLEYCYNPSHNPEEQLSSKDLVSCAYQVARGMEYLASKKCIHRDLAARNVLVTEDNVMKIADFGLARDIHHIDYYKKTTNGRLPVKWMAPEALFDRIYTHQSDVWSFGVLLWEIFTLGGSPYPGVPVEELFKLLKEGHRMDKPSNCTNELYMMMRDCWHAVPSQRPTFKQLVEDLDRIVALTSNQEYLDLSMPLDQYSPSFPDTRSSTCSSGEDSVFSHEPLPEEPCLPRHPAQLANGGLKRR
Description: as §1, §2, §3

FGFR2 = FGFR2 (Homo sapiens, UniProt P21802)
Description: as §1, §2, §3

FGFR4 = FGFR4 (Homo sapiens, UniProt P22455)
Description: as §1, §2, §3

FLT3 = FLT3 (Homo sapiens, UniProt P36888)
Description: as §1, §2, §3

HCK = HCK (Homo sapiens, UniProt P08631)
Description: as §1, §2, §3

KDRNEGFR2 = KDRNEGFR2 (Homo sapiens, UniProt P35968)
Description: as §1, §2, §3

KHS/MAP4K5 = KHS/MAP4K5 (Homo sapiens, UniProt Q9Y4K4)
Sequence of KHS/MAP4K5 (Q9Y4K4 whole entry): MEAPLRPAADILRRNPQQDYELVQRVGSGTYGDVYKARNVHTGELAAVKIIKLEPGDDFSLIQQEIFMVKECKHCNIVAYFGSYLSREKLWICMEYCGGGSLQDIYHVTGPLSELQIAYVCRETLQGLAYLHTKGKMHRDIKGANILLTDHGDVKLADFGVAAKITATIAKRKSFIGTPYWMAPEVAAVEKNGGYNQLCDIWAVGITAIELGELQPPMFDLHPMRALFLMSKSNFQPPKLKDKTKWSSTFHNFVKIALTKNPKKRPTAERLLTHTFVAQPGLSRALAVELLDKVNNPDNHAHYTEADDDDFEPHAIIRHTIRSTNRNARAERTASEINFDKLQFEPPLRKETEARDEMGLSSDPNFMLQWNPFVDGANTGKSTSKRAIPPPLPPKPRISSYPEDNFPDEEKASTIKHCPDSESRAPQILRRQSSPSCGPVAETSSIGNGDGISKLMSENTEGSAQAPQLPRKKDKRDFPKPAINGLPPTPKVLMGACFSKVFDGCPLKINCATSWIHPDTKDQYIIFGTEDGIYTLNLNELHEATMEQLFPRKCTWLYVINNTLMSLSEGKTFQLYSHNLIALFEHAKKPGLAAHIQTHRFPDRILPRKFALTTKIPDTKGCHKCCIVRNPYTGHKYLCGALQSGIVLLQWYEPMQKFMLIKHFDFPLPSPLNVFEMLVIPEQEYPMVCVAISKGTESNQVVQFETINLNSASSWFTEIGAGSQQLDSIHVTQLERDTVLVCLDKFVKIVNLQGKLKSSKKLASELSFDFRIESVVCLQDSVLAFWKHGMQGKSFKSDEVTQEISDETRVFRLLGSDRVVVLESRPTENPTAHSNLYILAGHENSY
Description: as §1, §2, §3

LIMK1 = LIMK1 (Homo sapiens, UniProt P53667)
Description: as §1, §2, §3

LOK/STK10 = LOK/STK10 (Homo sapiens, UniProt O94804)
Description: as §1, §2, §3

MEK5 = MEK5 (Homo sapiens, UniProt Q13163)
Description: as §1, §2, §3

MLCK2/MYLK2 = MLCK2/MYLK2 (Homo sapiens, UniProt Q9H1R3)
Description: as §1, §2, §3

P38b/MAPK11 = P38b/MAPK11 (Homo sapiens, UniProt Q15759)
Sequence of P38b/MAPK11 (Q15759 whole entry): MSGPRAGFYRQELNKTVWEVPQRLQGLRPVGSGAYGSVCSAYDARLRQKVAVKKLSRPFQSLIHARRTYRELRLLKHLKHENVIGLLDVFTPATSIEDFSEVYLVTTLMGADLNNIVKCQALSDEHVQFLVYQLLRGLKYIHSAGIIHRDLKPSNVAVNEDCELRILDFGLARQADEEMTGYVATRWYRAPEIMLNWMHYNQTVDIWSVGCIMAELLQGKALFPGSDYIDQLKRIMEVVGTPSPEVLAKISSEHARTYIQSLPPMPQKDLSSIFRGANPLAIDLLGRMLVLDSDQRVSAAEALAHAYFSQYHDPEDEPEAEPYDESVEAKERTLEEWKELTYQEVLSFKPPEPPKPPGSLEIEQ
Description: as §1, §2, §3

PDGFRa = PDGFRa (Homo sapiens, UniProt P16234)
Description: as §1, §2, §3

PEAK1 = PEAK1 (Homo sapiens, UniProt Q9H792)
Sequence of PEAK1 (Q9H792 whole entry): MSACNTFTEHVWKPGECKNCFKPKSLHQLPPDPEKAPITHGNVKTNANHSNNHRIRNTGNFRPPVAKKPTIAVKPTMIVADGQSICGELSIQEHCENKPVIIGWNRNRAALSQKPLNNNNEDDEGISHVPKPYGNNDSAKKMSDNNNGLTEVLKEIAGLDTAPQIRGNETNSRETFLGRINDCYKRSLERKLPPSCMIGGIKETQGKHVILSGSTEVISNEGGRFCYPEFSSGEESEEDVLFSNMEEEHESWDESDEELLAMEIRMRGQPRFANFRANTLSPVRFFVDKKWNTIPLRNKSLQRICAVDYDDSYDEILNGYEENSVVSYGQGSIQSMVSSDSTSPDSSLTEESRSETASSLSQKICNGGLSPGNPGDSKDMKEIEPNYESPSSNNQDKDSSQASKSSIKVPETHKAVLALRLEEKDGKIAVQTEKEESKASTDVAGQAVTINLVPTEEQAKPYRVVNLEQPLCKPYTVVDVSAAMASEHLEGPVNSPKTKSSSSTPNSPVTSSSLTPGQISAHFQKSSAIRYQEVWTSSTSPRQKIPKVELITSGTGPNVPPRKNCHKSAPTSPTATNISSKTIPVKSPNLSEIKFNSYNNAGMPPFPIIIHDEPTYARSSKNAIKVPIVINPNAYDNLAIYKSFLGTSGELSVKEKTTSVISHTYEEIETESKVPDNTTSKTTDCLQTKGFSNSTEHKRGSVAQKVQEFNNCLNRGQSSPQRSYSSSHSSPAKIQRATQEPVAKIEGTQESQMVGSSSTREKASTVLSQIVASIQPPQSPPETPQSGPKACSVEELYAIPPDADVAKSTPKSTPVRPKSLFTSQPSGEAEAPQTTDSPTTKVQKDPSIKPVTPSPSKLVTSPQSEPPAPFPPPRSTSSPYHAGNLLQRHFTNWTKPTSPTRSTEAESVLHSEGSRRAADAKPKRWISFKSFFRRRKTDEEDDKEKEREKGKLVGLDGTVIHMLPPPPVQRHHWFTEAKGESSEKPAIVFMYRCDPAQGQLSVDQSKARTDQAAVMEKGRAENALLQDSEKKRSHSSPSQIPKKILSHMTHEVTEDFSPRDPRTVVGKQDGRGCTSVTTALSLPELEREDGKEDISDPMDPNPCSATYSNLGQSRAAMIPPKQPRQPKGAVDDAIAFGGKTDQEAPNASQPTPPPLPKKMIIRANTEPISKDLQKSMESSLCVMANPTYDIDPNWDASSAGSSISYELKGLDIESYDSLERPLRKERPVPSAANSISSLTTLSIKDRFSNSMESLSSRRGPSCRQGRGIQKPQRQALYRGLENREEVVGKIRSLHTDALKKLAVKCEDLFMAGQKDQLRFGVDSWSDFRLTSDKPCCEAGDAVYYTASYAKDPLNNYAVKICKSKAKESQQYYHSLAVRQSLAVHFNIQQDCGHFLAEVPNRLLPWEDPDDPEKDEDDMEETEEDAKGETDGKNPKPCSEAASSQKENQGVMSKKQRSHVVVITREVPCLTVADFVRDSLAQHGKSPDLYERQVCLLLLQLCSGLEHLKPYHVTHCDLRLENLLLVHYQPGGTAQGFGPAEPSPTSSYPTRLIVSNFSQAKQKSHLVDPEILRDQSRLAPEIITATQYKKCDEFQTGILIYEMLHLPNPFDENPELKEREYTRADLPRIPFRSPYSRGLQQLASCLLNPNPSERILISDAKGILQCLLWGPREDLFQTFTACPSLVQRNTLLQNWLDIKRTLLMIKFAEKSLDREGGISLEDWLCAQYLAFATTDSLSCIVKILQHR
Description: as §1, §2, §3

SIK1 = SIK1 (Homo sapiens, UniProt P57059)
Description: as §1, §2, §3

TAK1 = TAK1 (Homo sapiens, UniProt O43318)
Sequence of TAK1 (O43318 1-303 limits assumed): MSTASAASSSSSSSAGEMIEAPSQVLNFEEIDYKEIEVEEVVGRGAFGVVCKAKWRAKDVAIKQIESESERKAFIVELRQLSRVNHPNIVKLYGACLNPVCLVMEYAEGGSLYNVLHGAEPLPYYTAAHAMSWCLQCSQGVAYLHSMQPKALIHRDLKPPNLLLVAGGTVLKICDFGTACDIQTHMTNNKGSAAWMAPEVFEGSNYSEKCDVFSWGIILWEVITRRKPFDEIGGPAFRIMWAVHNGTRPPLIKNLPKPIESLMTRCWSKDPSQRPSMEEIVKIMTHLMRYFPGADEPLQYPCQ
Description: as §1, §2, §3

TAOK2/TAO1 = TAOK2/TAO1 (Homo sapiens, UniProt Q9UL54)
Description: as §1, §2, §3

TAOK3/JIK = TAOK3/JIK (Homo sapiens, UniProt Q9H2K8)
Sequence of TAOK3/JIK (Q9H2K8 whole entry): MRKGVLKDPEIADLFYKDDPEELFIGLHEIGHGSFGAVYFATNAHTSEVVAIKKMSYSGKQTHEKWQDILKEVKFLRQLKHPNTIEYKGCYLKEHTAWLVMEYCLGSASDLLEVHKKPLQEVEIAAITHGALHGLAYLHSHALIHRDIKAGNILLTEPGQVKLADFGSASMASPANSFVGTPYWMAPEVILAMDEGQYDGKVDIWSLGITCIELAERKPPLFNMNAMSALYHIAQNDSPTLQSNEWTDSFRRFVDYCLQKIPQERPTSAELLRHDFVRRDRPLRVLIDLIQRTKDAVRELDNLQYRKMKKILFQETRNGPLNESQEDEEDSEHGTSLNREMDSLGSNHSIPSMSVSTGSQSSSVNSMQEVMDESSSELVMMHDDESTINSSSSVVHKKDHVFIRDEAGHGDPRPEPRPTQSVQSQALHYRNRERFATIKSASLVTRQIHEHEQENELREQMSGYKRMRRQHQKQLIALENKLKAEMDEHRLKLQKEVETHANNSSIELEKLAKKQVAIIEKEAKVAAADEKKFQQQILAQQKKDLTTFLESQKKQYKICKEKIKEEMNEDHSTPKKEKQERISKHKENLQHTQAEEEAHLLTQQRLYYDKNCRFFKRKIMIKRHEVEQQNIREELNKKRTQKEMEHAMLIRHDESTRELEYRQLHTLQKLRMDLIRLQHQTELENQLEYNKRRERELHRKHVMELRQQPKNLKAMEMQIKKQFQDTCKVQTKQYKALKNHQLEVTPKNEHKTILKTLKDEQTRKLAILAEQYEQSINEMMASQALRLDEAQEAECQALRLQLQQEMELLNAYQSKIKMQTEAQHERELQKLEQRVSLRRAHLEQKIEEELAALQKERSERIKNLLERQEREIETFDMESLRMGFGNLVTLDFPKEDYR
Description: as §1, §2, §3

TEC = TEC (Homo sapiens, UniProt P42680)
Description: as §1, §2, §3

TNK1 = TNK1 (Homo sapiens, UniProt Q13470)
Description: as §1, §2, §3

TRKA = TRKA (Homo sapiens, UniProt P04629)
Description: as §1, §2, §3

YES/YES1 = YES/YES1 (Homo sapiens, UniProt P07947)
Description: as §1, §2, §3

YSK4/MAP3K19 = YSK4/MAP3K19 (Homo sapiens, UniProt Q56UN5)
Description: as §1, §2, §3

ZAK/MLTK = ZAK/MLTK (Homo sapiens, UniProt Q9NYL2)
Description: as §1, §2, §3

remaining activity at 1 µM (ABL2/ARG): ≤ 30%
remaining activity at 1 µM (BRK): ≤ 30%
remaining activity at 1 µM (DDR1): ≤ 30%
remaining activity at 1 µM (EPHA2): ≤ 30%
remaining activity at 1 µM (EPHA4): ≤ 30%
remaining activity at 1 µM (EPHB3): ≤ 30%
remaining activity at 1 µM (FES/FPS): ≤ 30%
remaining activity at 1 µM (FGFR1): ≤ 30%
remaining activity at 1 µM (FGFR2): ≤ 30%
remaining activity at 1 µM (FGFR4): ≤ 30%
remaining activity at 1 µM (FLT3): ≤ 30%
remaining activity at 1 µM (HCK): ≤ 30%
remaining activity at 1 µM (KDRNEGFR2): ≤ 30%
remaining activity at 1 µM (KHS/MAP4K5): ≤ 30%
remaining activity at 1 µM (LIMK1): ≤ 30%
remaining activity at 1 µM (LOK/STK10): ≤ 30%
remaining activity at 1 µM (MEK5): ≤ 30%
remaining activity at 1 µM (MLCK2/MYLK2): ≤ 30%
remaining activity at 1 µM (P38b/MAPK11): ≤ 30%
remaining activity at 1 µM (PDGFRa): ≤ 30%
remaining activity at 1 µM (PEAK1): ≤ 30%
remaining activity at 1 µM (SIK1): ≤ 30%
remaining activity at 1 µM (TAK1): ≤ 30%
remaining activity at 1 µM (TAOK2/TAO1): ≤ 30%
remaining activity at 1 µM (TAOK3/JIK): ≤ 30%
remaining activity at 1 µM (TEC): ≤ 30%
remaining activity at 1 µM (TNK1): ≤ 30%
remaining activity at 1 µM (TRKA): ≤ 30%
remaining activity at 1 µM (YES/YES1): ≤ 30%
remaining activity at 1 µM (YSK4/MAP3K19): ≤ 30%
remaining activity at 1 µM (ZAK/MLTK): ≤ 30%
SMILES: CCN1CCN(C(=O)c2ccc(Nc3ncc4c(n3)N(C)C(=O)N(c3cc(NC(=O)Nc5ccccc5OC)ccc3C)C4)cn2)CC1 [Compound No. 14, 1-(3-(7-((6-(4-ethylpiperazin-1-carbonyl)pyridin-3-yl)amino)-1-methyl-2-oxo-1,4-dihydropyrimido[4,5-d]pyrimidin-3(2H)-yl)-4-methylphenyl)-3-(2-methoxyphenyl)urea]
